Experimental data published in US20240368122A1, “JAK2 INHIBITORS AND METHODS OF USE THEREOF” (RELAY THERAPEUTICS, INC., priority 2021, published 2024).

Legend:
[1] = system: TF1 JAK2 V617F STAT3 reporter; assay: Cellular TF1 STAT3 assay (luciferase reporter), JAK2 V617F; format: cell-based; details: Homo sapiens, TF-1, TF1 cells, JAK2 V617F, read-out: Cell PD-TF1 JAK2 V617F STAT3 (IC50)
Summary of the method: (§1)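 TF1 V617F JAK2 reporter cells, 10k/well; 10-pt 1:3 dose response from 10 mM 1000× DMSO stock; 18-20 h, 37 °C, 5% CO2; ONE-glo, 10 min RT; luminescence. Triplicate plates, DMSO vehicle.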

[2] = biological target: T1, JAK2 JH2 WT (V536-D812) [W659A, W777A, F794H solubilizing mutations] (Homo sapiens, UniProt O60674, F794H/W659A/W777A); assay: Surface Plasmon Resonance (SPR) binding assay, JAK2 JH2 domain
T1 construct: **JAK2 JH2 WT (V536-D812) [W659A, W777A, F794H solubilizing mutations]; C-thrombin-avi-His6; thrombin cleavage site (C); His6 (C); purchased Biortus
T1 sequence (O60674 536-812 W659A/W777A/F794H): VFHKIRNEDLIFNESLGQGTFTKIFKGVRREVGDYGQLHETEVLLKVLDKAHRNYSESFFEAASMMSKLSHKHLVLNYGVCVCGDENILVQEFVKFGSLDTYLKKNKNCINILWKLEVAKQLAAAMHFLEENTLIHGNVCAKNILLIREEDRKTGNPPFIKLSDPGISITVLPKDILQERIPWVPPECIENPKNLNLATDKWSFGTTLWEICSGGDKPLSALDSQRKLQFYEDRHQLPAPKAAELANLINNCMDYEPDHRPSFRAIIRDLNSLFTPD
Summary of the method: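 Kinetics came from 1:1 fits of single-cycle runs at 20 °C: four 3-fold dilutions from 5 uM for JH1 or 500 nM for JH2, 60 s association, and 300 s or 1200 s dissociation respectively. Protein was freshly captured per compound in the presence of 10 uM stabilizer compound, with running buffer of pH 7.5 HEPES/NaCl/glycerol/DTT plus 2% DMSO.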

[3] = system: TF1 JAK2 V617F STAT5 reporter; assay: Cellular TF1 STAT5 assay (luciferase reporter), JAK2 V617F; format: cell-based; details: Homo sapiens, TF-1, TF1 cells, JAK2 V617F, read-out: Cell PD TF1 V617F STAT5 (IC50)
Summary of the method: as §1

| SMILES | IC50 [1] | Kd [2] | IC50 [3] |
| --- | --- | --- | --- |
| CCN(C)C(=O)c1cccc(CN2CC(n3cc(-c4cccc(Nc5cc(NC(=O)C6CC6)nnc5C(=O)NC)c4OC)cn3)C2)n1 [Compound 354] | 50 to 500 nM | 0.01 to 10 nM | 10 to 50 nM |
| CNC(=O)c1nnc(NC(=O)C2CC2)cc1Nc1cccc(-c2cnn(C3CN(Cc4cccc(C(=O)N5CCC5)n4)C3)c2)c1OC [Compound 355] | 50 to 500 nM | 0.01 to 10 nM | 10 to 50 nM |
| CNC(=O)c1nnc(NC(=O)C2CC2)cc1Nc1cccc(-c2cnn(C3CN(Cc4cccc(C(=O)N5CCCC5)n4)C3)c2)c1OC [Compound 356] | 10 to 50 nM | 0.01 to 10 nM | 10 to 50 nM |
| CNC(=O)c1nnc(NC(=O)C2CC2)cc1Nc1cccc(-c2cnn(C3CN(Cc4cccc(C(=O)N5CCC(F)(F)C5)n4)C3)c2)c1OC [Compound 357] | 50 to 500 nM | 0.01 to 10 nM | 10 to 50 nM |
| CNC(=O)c1nnc(NC(=O)C2CC2)cc1Nc1cccc(-c2cnn(C3CN(Cc4cccc(C(=O)N5CCC(C(F)(F)F)C5)n4)C3)c2)c1OC (stereo not drawn) [Compound 358] | 50 to 500 nM | 0.01 to 10 nM | 50 to 500 nM |
| CNC(=O)c1nnc(NC(=O)C2CC2)cc1Nc1cccc(-c2ccc(C3CN(Cc4ccccn4)C3)c(OC)c2)c1OC [Compound 359] | 5000 to 100000 nM | 50 to 500 nM | 500 to 5000 nM |
| CNC(=O)c1nnc(NC(=O)C2CC2)cc1Nc1cccc(-c2ccc(C3CN(Cc4cc(C#N)ccn4)C3)c(OC)c2)c1OC [Compound 360] | 5000 to 100000 nM | 50 to 500 nM | 500 to 5000 nM |
| CNC(=O)c1nnc(NC(=O)C2CC2)cc1Nc1cccc(-c2ccc(C3CN(Cc4cccc(C#N)n4)C3)c(OC)c2)c1OC [Compound 361] | 5000 to 100000 nM | 50 to 500 nM | 500 to 5000 nM |
| CNC(=O)c1nnc(NC(=O)C2CC2)cc1Nc1cccc(-c2ccc(C(=O)N(C)Cc3ncc(COC4CC4)s3)nc2)c1OC [Compound 362] | 500 to 5000 nM | 0.01 to 10 nM | 500 to 5000 nM |
| COc1c(Nc2cc(NC(=O)C3CC3)nnc2-c2ncc[nH]2)cccc1-c1ccc(C(=O)N(C)Cc2cn(C)nc2C)nc1 [Compound 363] | 500 to 5000 nM | 0.01 to 10 nM | 50 to 500 nM |
| CNC(=O)c1nnc(NC(=O)OC2CC2)cc1Nc1cccc(-c2cnn(C3CN(Cc4cccc(C#N)n4)C3)c2)c1OC [Compound 364] | 50 to 500 nM | 0.01 to 10 nM | 50 to 500 nM |
| CNC(=O)c1nnc(NC(=O)C2CC2)cc1Nc1cccc(-c2cnn(C3CN(Cc4ncccc4O)C3)c2)c1OC [Compound 365] | 500 to 5000 nM | 0.01 to 10 nM | 500 to 5000 nM |
| COc1c(Nc2cc(NC(=O)C3CC3)nnc2-c2ncc[nH]2)cccc1-c1ccc(C(=O)N(C)Cc2cc(C#N)ccn2)nc1 [Compound 366] | 50 to 500 nM | 0.01 to 10 nM | 50 to 500 nM |
| C=C(C)c1cccc(CN2CC(n3cc(-c4cccc(Nc5cc(NC(=O)C6CC6)nnc5C(=O)NC)c4OC)cn3)C2)n1 [Compound 367] | 50 to 500 nM | 0.01 to 10 nM | 50 to 500 nM |
| C=Cc1cccc(CN2CC(n3cc(-c4cccc(Nc5cc(NC(=O)C6CC6)nnc5C(=O)NC)c4OC)cn3)C2)n1 [Compound 368] | 50 to 500 nM | 0.01 to 10 nM | 50 to 500 nM |
| CNC(=O)c1nnc(NC(=O)C2CC2)cc1Nc1cccc(-c2cnn(C3CN(Cc4cccc(C5(C)COC5)n4)C3)c2)c1OC [Compound 369] | 50 to 500 nM | 0.01 to 10 nM | 50 to 500 nM |
| CNC(=O)c1nnc(NC(=O)C2CC2)cc1Nc1cccc(-c2cnn(C3CC(C(O)c4ccccn4)C3)c2)c1OC (stereo not drawn) [Compound 370] | 500 to 5000 nM | 0.01 to 10 nM | 500 to 5000 nM |
| COc1c(Nc2cc(NC(=O)C3CC3)nnc2-c2ncc[nH]2)ccc(C)c1-c1ccc(C(=O)N(C)Cc2cc(C#N)ccn2)nc1 [Compound 371] | 50 to 500 nM | 0.01 to 10 nM | 50 to 500 nM |
| CNC(=O)c1nnc(NC(=O)C2CC2)cc1Nc1cccc(-c2cnn(C3CC(Oc4cccc(C#N)n4)C3)c2)c1OC (stereo not drawn) [Compound 372] | 500 to 5000 nM | 0.01 to 10 nM | 500 to 5000 nM |
